Laboratory results published in patent US9346769B2, “Tetrazolones as inhibitors of fatty acid synthase” (Infinity Pharmaceuticals, Inc., priority 2010, dated 2016).

target: T1, human FASN (Homo sapiens, UniProt P49327); assay: FASN NADPH Consumption Assay; type: biochemical; conditions: human FASN purified from SKBR3 cells; starred symbols
T1 construct: was purified from SKBR3 cells using procedures modified from those in Jayakumar et al; endogenous in cells; host or cells: SKBR3 human breast cancer cells (ATCC); Endogenous enzyme purified by ammonium sulfate precipitation and a mono Q column
Method: Human FASN protein (SEQ ID NO. 1) was purified from SKBR3 cells using procedures modified from those in Jayakumar et al. PNAS 1995, 92:8695-8699. SKBR3 cells were obtained from ATCC and grown in DMEM high glucose medium supplemented with 10% FBS, 1 μg/mL bovine pancreas insulin, 100 U/mL penicillin and 100 µg/mL streptomycin. The confluent cells were trypsinized and washed three times with PBS buffer before frozen in liquid N2 and stored at −80° C. Frozen cells were thawed on ice and resuspended in lysis buffer (25 mM Tris-HCl, pH 7.0, 15 mM NaCl, 1 mM EDTA, and 1 mM DTT) with protease inhibitors. The cells were lysed by sonication, and the cell debris was removed by centrifugation at 20,000 rpm for 30 min. To the supernatant, neutralized saturated ammonium sulfate solution was added to a final concentration of 35%. The solution was left on ice for 1 hr, and the precipitated proteins were harvested by centrifugation at 20,000 rpm for 30 min. The proteins were redissolved in lysis buffer without NaCl and loaded on a mono Q column. Bound proteins were eluted with a linear gradient of NaCl in lysis buffer. Each fraction was analyzed by SDS-PAGE and FASN NADPH consumption assay. The fractions containing FASN were pooled and concentrated to 2-3 mg/mL. Glycerol was added to 20%, and the protein was frozen in liquid N2 and stored at −80° C.
All chemicals were purchased from Sigma (St. Louis, Mo.). The procedures of NADPH consumption assay were similar to those described in Cox et al., PNAS 1983, 80:4233-4237. On a 96-well polypropylene microplate, dilution series (typical concentrations 60 nM-1.0 mM) of test compounds were prepared in DMSO, of which 4.0 μL each was transferred to a black polystyrene assay microplate and mixed with 36 μL FASN assay buffer (50 mM potassium phosphate, pH 7.0, 1.0 mM EDTA, 0.01% NP-40) plus 5.0 mM fresh DTT. FASN protein (40 μL 150 nM FASN) was added per well, and the microplate was incubated at 37° C. for 30 min. Enzyme activity measurement was initiated by addition of 20 μL 5× substrate mixture to final concentrations of 60 nM FASN, 2.4 nM-40 μM compound, 0.2 mM NADPH, 50 μM butyryl-CoA, 0.5 mM malonyl-CoA in 100 μL assay buffer plus 5.0 mM DTT and 4.0% DMSO. NADPH consumption was monitored kinetically by fluorescence (λEx=340 nm, λEm=460 nm) on an EnVision 2100 multilabel plate reader (Perkin Elmer, Waltham, Mass.). FASN enzyme activity (slope) in the presence of 4% DMSO was used as maximum control, whereas background (minimum control) was measured by omission of malonyl-CoA in the substrate mixture. Inhibition curves were fitted by a logistic function to yield IC50 values:
Compounds were assayed as inhibitors of human FASN using the above-described FASN Scintillation Proximity Flashplate Assay (IC50; nM) or FASN NADPH Consumption Assay (*) (IC50; nM). The corresponding activity of the isolated compound is also provided along with the measured mass (ES^+).

T1 sequence (P49327 whole entry): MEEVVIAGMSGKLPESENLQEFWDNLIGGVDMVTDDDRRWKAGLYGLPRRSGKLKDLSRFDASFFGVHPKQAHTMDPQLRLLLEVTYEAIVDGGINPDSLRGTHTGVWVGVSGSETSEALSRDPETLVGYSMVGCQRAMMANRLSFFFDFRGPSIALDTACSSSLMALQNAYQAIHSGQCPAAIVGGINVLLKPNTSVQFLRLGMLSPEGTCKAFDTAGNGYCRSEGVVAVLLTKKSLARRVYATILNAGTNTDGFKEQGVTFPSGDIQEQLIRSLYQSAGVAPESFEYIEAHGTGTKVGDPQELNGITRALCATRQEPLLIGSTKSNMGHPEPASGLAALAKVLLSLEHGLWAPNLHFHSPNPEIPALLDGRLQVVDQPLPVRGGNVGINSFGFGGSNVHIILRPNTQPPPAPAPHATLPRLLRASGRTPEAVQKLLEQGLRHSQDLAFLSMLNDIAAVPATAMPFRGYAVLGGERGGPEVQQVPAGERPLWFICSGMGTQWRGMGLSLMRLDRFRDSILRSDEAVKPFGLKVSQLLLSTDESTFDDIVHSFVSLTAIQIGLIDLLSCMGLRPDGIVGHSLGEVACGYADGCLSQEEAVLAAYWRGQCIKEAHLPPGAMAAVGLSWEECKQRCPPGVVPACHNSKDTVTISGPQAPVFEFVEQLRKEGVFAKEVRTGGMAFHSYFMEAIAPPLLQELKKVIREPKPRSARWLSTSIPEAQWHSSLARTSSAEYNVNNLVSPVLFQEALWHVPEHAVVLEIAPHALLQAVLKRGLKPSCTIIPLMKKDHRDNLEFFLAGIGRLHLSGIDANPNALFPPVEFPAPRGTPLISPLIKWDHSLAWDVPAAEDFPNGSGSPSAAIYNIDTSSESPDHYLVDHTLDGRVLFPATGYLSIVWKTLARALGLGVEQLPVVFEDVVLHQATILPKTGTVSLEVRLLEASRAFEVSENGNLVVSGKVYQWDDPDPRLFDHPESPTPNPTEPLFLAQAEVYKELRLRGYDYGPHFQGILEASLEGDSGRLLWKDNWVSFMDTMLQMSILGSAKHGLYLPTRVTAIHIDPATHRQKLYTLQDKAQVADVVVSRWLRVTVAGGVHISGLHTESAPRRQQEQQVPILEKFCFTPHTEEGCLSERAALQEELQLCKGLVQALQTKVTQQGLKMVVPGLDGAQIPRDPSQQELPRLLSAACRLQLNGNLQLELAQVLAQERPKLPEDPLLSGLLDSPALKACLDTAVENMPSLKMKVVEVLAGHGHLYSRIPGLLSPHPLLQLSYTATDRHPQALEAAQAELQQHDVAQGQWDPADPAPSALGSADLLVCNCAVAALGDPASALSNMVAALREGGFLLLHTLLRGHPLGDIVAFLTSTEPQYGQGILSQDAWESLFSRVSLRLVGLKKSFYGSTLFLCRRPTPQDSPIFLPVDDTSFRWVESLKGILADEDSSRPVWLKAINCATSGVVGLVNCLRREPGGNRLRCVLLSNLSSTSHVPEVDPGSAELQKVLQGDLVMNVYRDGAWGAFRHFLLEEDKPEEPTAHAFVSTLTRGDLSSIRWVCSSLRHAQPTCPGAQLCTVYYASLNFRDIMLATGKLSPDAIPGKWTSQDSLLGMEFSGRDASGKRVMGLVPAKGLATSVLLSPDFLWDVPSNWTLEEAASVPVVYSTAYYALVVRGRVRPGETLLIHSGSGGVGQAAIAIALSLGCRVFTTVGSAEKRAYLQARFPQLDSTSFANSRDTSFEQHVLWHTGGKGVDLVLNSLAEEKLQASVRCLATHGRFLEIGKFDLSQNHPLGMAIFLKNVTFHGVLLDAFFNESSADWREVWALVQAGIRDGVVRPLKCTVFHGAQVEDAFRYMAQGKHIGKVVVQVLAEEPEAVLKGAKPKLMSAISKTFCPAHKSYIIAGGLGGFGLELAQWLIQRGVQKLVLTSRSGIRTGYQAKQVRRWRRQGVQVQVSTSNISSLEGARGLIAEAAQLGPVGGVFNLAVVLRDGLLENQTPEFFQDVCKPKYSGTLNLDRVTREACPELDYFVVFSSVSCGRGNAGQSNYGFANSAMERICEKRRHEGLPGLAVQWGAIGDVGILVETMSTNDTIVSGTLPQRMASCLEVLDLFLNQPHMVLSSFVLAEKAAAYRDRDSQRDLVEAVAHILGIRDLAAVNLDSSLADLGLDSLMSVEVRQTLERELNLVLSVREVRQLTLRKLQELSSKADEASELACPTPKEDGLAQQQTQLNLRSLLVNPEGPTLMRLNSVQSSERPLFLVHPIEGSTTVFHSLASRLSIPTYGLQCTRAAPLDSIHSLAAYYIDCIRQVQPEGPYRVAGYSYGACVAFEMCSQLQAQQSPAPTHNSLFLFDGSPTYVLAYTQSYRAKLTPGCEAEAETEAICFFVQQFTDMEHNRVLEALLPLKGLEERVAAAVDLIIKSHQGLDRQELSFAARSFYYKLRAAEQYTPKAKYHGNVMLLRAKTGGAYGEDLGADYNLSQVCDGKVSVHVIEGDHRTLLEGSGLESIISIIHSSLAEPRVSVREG

Compared with `CCN(C(=O)n1nnn(-c2c(F)cccc2F)c1=O)c1ccc(Cl)cc1`, `CCN(C(=O)n1nnn(-c2c(F)cccc2F)c1=O)c1ccccc1` is lower in IC50: 0.06 to 0.25 µM for the first, under 0.06 µM for the second. The second is the more potent here.

First: CCN(C(=O)n1nnn(-c2c(C)cccc2C)c1=O)C1CCCCC1
Second: CCN(C(=O)n1nnn(-c2c(C)cccc2Cl)c1=O)C1CCCCC1
The IC50 of the first is higher: over 10 µM for the first, 1 to 10 µM for the second.

Compared with `CN(C(=O)n1nnn(-c2c(F)cccc2F)c1=O)c1ccccc1C(F)(F)F`, `COc1ccccc1N(C)C(=O)n1nnn(-c2c(F)cccc2F)c1=O` is higher in IC50: 0.06 to 0.25 µM for the first, 0.25 to 1 µM for the second.

`CCN(C(=O)n1nnn(-c2ccccc2Br)c1=O)C1CCCCC1` and `CCN(C(=O)n1nnn(-c2cccc3nsnc23)c1=O)C1CCCCC1` fall in the same range of IC50: 1 to 10 µM for the first, 1 to 10 µM for the second.

`CN(C(=O)n1nnn(-c2ccccc2Cl)c1=O)c1ccccc1` and `CN(C(=O)n1nnn(-c2ccccc2F)c1=O)c1ccccc1` fall in the same range of IC50: 0.25 to 1 µM for the first, 0.25 to 1 µM for the second.

First: CC(C)C[C@@H](NC=O)C(=O)NCCCN(C(=O)n1nnn(-c2c(Cl)cccc2Cl)c1=O)C1CCCCC1
Second: CCN(C(=O)n1nnn(-c2c(Cl)cccc2Cl)c1=O)C1CCCC(C(=O)NC)C1 (centres unmarked)
The IC50 of the first is higher: over 10 µM for the first, 1 to 10 µM for the second.

`CCCCCCN(C(=O)n1nnn(-c2ccccc2OC)c1=O)c1cc(C(=O)O)ccc1OC` and `CCN(C(=O)n1nnn(-c2ccccc2OC)c1=O)c1cccc(C(=O)O)c1OC` fall in the same range of IC50: 0.25 to 1 µM for the first, 0.25 to 1 µM for the second.

First: CCN(C(=O)n1nnn(-c2c(Cl)cccc2Cl)c1=O)C1CCCN(C(=O)OC(C)(C)C)C1 (centres unmarked)
Second: CCN(C(=O)n1nnn(-c2c(Cl)cccc2Cl)c1=O)C1CCC(NC(=O)OC(C)(C)C)CC1 (centres unmarked)
The IC50 of the first is lower: 1 to 10 µM for the first, over 10 µM for the second. The first is the more potent here.

First: O=C(N1CC[C@](O)(c2ccccc2)[C@@H]2CCCC[C@H]21)n1nnn(-c2c(F)cccc2F)c1=O
Second: O=C(N(O)C1CCCCC1)n1nnn(-c2c(F)cccc2F)c1=O
The IC50 of the first is higher: 1 to 10 µM for the first, 0.06 to 0.25 µM for the second. The second is the more potent here.

First: CN(C(=O)n1nnn(-c2c(F)cccc2F)c1=O)c1cccc(Br)c1
Second: CCN(C(=O)n1nnn(-c2c(F)cccc2F)c1=O)c1cccc(C)c1
The IC50 of the first is higher: 0.06 to 0.25 µM for the first, under 0.06 µM for the second.

Compared with `O=C(N(CCO)c1ccccc1)n1nnn(-c2c(F)cccc2F)c1=O`, `C=CCN(C(=O)n1nnn(-c2c(F)cccc2F)c1=O)c1ccccc1` is lower in IC50: 1 to 10 µM for the first, under 0.06 µM for the second.

First: CS(=O)(=O)NCCCN(C(=O)n1nnn(-c2c(Cl)cccc2Cl)c1=O)c1ccc(C(=O)O)cc1
Second: CCN(C(=O)n1nnn(-c2c(Cl)cccc2Cl)c1=O)c1ccc(N)cc1
The IC50 of the first is higher: 1 to 10 µM for the first, 0.06 to 0.25 µM for the second. The second is the more potent here.

`CCN(C(=O)n1nnn(-c2c(F)cc(F)cc2Br)c1=O)c1ccccc1` and `CCN(C(=O)n1nnn(-c2c(F)cccc2F)c1=O)c1ccccc1C` fall in the same range of IC50: 0.06 to 0.25 µM for the first, 0.06 to 0.25 µM for the second.

First: COc1cccc(F)c1-n1nnn(C(=O)N(C2CCCCC2)C2CCCCC2)c1=O
Second: CCN(C(=O)n1nnn(-c2c(Cl)cccc2C(F)(F)F)c1=O)C1CCCCC1
The IC50 of the first is lower: 1 to 10 µM for the first, over 10 µM for the second. The first is the more potent here.

First: CCN(C(=O)n1nnn(-c2c(F)cccc2F)c1=O)c1cc(F)ccc1F
Second: CCN(C(=O)n1nnn(-c2c(Cl)cccc2Cl)c1=O)c1ccc([N+](=O)[O-])cc1F
The IC50 of the first is lower: under 0.06 µM for the first, 0.25 to 1 µM for the second.

`CCN(C(=O)n1nnn(-c2c(Cl)cccc2Cl)c1=O)C1CCCN(S(C)(=O)=O)C1` (centres unmarked) and `CCN(C(=O)n1nnn(-c2c(Cl)cccc2Cl)c1=O)C1CCC(C(=O)O)CC1` (centres unmarked) fall in the same range of IC50: 1 to 10 µM for the first, 1 to 10 µM for the second.

`CCN(C(=O)n1nnn(-c2c(Cl)cccc2Cl)c1=O)C1CCCC(C(=O)OCc2ccccc2)C1` (centres unmarked) and `CCN(C(=O)n1nnn(-c2c(Cl)cc(Cl)cc2Cl)c1=O)C1CCCCC1` fall in the same range of IC50: 1 to 10 µM for the first, 1 to 10 µM for the second.

Compared with `CN(C)N(C(=O)n1nnn(-c2ccccc2Br)c1=O)C1=CCCCC1`, `CN(C(=O)n1nnn(-c2ccccc2Cl)c1=O)c1ccc(Br)cc1` is lower in IC50: 0.25 to 1 µM for the first, 0.06 to 0.25 µM for the second. The second is the more potent here.

First: CCN(C(=O)n1nnn(-c2cccc(C#N)c2)c1=O)C1CCCCC1
Second: CCN(C(=O)n1nnn(-c2ccccc2Cl)c1=O)c1ccccc1
The IC50 of the first is higher: over 10 µM for the first, 0.06 to 0.25 µM for the second. The second is the more potent here.

`COc1ccccc1-n1nnn(C(=O)N(c2ccccc2)c2ccc(C(=O)O)cc2)c1=O` and `CCN(C(=O)n1nnn(-c2c(F)cccc2OC)c1=O)c1ccc(C(=O)OCc2ccccc2)c(OC)c1` cannot be ordered by IC50: under 0.06 µM for the first, under 0.06 µM for the second.

In the case of `CC(C)(C)OC(=O)N[C@H]1CCN(C(=O)n2nnn(-c3c(Cl)cccc3Cl)c2=O)C1`, the IC50 is reported as over 10 µM.
